Measured values published in article PMC5701137, “Discovery of novel choline acetyltransferase inhibitors using structure-based virtual screening” (Scientific Reports, 2017).

Columns and labels:
Type in all cases: biochemical
human rChAT = biological target: T1, human rChAT (Homo sapiens, UniProt P28329); test: In vitro ChAT activity inhibition fluorometric assay and kinetic studies; details: 100 µM compound; compared to control; mean of three experiments in triplicate; read-out: ChAT % IR (inhibition rate)
T1 construct: made in house; host or cells: E. coli BL21 Rosetta2
T1 sequence (P28329 1-630 isoform P28329-3): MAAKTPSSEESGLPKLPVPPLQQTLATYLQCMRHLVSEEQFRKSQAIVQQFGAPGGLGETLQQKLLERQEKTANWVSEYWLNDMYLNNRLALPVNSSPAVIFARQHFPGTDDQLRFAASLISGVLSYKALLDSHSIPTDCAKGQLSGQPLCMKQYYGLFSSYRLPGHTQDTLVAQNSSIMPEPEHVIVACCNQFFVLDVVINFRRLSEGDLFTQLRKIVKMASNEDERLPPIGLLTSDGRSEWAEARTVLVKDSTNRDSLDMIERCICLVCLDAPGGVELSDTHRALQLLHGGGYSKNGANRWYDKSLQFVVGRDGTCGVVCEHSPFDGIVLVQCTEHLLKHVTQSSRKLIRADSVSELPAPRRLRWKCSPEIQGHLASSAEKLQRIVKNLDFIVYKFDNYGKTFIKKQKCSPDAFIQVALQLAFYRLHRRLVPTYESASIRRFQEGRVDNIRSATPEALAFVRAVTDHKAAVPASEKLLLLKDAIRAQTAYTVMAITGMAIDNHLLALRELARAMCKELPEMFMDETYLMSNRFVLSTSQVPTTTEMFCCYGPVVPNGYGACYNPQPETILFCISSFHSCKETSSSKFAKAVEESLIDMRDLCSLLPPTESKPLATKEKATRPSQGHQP
Protocol: ChAT activity was measured using our newly developed fluorometric assay, using human recombinant ChAT (rChAT) protein. The reagents, choline chloride, acetyl coenzyme-A (ACoA, A2181) and 7-Diethylamino-3-(4-maleimidophenyl)-4-methylcoumarin (CPM) were purchased from Sigma-Aldrich (St. Louis, MO, USA).
The ChAT assay could be run in either 96-well or 384-well plates. For 96-well plates, 50 μL/well of 0.212 µg/ml (final concentration) of the recombinant ChAT was incubated with 100 μM different Asinex compounds (50 μL/well) for 10–30 minutes at room temperature in dilution buffer (10 mM Tris-HCl, pH 7.4, 150 mM NaCl, 1.0 mM EDTA, 0.05% (v/v) Triton X-100). Then, 50 µL of a cocktail-A [dilution buffer containing choline chloride (final concentration 150 µM), ACoA (final concentration 13.3 µM) and CPM (final concentration 15 µM)] was added to each well. Immediately after adding the cocktail-A, the changes in fluorescence was monitored kinetically at 479 nm after exciting at 390 nm at 1–2 minute intervals for 15–20 minutes using a microplate spectrophotometer reader (Infinite M1000, Tecan).
Each Asinex compounds were run in triplicates. On each 96-wells plate, several enzyme wells without inhibitor were also included during measurements as control and for estimating the inhibition level. Negative controls were wells without enzyme. The percentage inhibition for each Asinex compound was calculated based on the enzyme control value as a reference (100% activity). The compounds showing over 50% inhibition of enzyme activity were selected for further kinetic studies.
(§1) For kinetic studies, a similar protocol as inhibition assay was followed; a dilution series of five different concentrations ranging from 10^−6 to 10^−9 M were prepared for each selected Asinex compounds. For ChAT, the A-CoA was kept constant at 10 μM (final) but the concentration of choline chloride varied between 320–10 μM. For BuChE, BTC was used as the substrate in the concentrations ranging from 0.0625 to 2 mM. For AChE, ATC was used as the substrate in the concentrations ranging from 0.0312 to 1 mM. Each compound concentration was measured in duplicates. The rate of enzyme activity (as ∆OD/hr kinetic data) was calculated and processed using the GraphPad Prism 7 analysis software. The inhibitory constant (Ki) values were determined from the dose-response curve and the half-maximal inhibitory concentration (IC50) values were calculated by plotting the percentage enzyme activity vs. the log of the Asinex compound concentrations and fitting the data using the nonlinear regression Enzyme Kinetics-Inhibition function.
The Michaelis-Menten constant (Km) and maximal velocity (Vmax) values were calculated from substrate-velocity curve after fitting the data with non-linear regression Michaelis-Menten kinetic function. The Km and Vmax values were further used to plot the Lineweaver-Burk plots; the plots were fitted using linear regression function.

recombinant human AChE = biological target: T2, recombinant human AChE (Homo sapiens, UniProt P22303); test: Modified Ellman's colorimetric assay for AChE and kinetic studies; details: for inhibition at 200 µM: 200 µM compound, compared to control, mean of three experiments in triplicate, read-out: AChE % IR (inhibition rate); for Ki / IC50: mean of two experiments; for IC50: substrate ATC 0.5 mM
T2 construct: purchased Sigma C1682
Text: (§2) A modified version of Ellman’s colorimetric assay[16],[17] was adapted to a high throughput assay for the enzymatic activity of BuChE and AChE. The reagent, butyrylthiocholine iodide (BTC), acetylthiocholine iodide (ATC), 5,5′-dithiobis (2-nitrobenzoic acid) (DTNB) were purchased from Sigma-Aldrich (St. Louis, MO, USA). The modified assay details are as previously described[34],[35]. The main modification concerned with the high throughput adaptation of the assay for use in 384-well plates. Briefly, 25 μL/well of a 1:450 diluted solution of a pooled human plasma and 1:768 diluted (3.5 ng/ml final concentration) purified recombinant human AChE protein (Sigma, Cat no. C1682) was used for measurement of BuChE and AChE activity, respectively. In the initial in vitro screening step, the wells were pre-incubated with 25 μL/wells of different Asinex compounds for 10–30 minutes at room temperature. The concentration of the compounds working solution was 3X to give a final concentration of 200 μM in a final volume of 75 μL in each well. The stock concentration of the compounds were prepared in 100% DMSO. The stock concentration was chosen usually at 10 mM, allowing the final DMSO concentration in the wells to be less than 4%. Finally, 25 μL of a cocktail mix prepared in Na/K phosphate buffer, containing DTNB (final concentration 0.4 mM) and BTC, (final concentration 1 mM) or ATC (final concentration 0.5 mM) was added to each well and the changes in absorbance was monitored at 412 nm wavelength for 15–20 minutes with one-minute interval, using a microplate spectrophotometer reader (Infinite M1000, Tecan). The rate of the enzyme activity was determined from the linear part of the kinetic reaction curves as ∆OD/time.
as §1

plasma BuChE = biological target: T3, plasma BuChE (Homo sapiens, UniProt P06276); test: Modified Ellman's colorimetric assay for BuChE (pooled human plasma) and kinetic studies; details: 200 µM compound; compared to control; mean of three experiments in triplicate; read-out: BuChE % IR (inhibition rate)
T3 construct: 1:450 diluted solution of a pooled human plasma; from tissue; host or cells: pooled human plasma
Text: as §2, §1

T3 sequence (P06276 29-602): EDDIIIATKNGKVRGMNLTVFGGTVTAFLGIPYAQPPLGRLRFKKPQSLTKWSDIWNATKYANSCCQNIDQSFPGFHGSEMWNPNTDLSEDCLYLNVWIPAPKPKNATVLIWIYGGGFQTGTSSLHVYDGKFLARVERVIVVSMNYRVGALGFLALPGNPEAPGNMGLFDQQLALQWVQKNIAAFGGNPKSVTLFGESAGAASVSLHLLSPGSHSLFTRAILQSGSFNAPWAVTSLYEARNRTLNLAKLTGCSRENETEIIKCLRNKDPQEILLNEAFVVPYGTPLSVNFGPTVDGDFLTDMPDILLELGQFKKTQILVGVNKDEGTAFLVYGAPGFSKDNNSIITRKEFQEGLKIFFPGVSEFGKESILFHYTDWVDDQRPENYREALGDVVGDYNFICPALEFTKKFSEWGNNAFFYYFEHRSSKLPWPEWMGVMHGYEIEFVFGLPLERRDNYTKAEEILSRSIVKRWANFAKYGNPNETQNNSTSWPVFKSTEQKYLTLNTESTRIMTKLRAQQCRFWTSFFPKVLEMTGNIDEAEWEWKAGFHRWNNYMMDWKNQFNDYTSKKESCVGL
T2 sequence (P22303 32-614): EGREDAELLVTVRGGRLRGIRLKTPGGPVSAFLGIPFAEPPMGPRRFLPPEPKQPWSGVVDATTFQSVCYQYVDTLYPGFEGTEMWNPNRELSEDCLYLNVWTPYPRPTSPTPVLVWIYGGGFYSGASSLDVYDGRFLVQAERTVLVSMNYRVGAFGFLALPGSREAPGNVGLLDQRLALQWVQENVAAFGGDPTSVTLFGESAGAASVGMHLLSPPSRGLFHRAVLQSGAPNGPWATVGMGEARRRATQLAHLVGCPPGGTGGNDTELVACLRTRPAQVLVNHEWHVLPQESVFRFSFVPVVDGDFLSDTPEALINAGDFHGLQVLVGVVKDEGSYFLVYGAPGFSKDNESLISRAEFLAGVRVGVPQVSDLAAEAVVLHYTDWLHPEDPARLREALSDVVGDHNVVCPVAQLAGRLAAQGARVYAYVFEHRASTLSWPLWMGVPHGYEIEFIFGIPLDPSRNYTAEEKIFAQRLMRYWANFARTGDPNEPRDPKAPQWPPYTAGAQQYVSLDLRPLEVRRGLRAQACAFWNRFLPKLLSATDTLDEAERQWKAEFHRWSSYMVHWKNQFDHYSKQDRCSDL

SMILES | inhibition at 100 µM (human rChAT) [%] | inhibition at 200 µM (recombinant human AChE) [%] | inhibition at 200 µM (plasma BuChE) [%] | Ki (recombinant human AChE) [µM] | IC50 (recombinant human AChE) [µM]
COc1cc(OC)cc(C(=O)N2CCN(C(=O)C(c3ccccc3)c3ccccc3)CC2)c1 [Compound A1] | 0 | 0 | 4.8 | – | –
CCOC(=O)c1sc2ncn(CCc3ccccc3)c(=O)c2c1C [Compound A3] | 6.9 | 0 | 15.1 | – | –
Cc1c(C)n(C(=O)CSc2nnc(-c3ccccc3)o2)c2ccccc12 [Compound A4] | 26.7 | 0 | 14.4 | – | –
CC1(C)CC(=O)C(=CNCC2CCN(C(=O)Cc3ccc(Cl)cc3)CC2)C(=O)C1 [Compound A5] | 2.1 | 7 | 9.2 | – | –
Cc1cc2nc(C3CCN(CC(=O)Nc4ccccc4)CC3)[nH]c2cc1C [Compound A6] | 0 | 11.9 | 20.2 | – | –
Clc1cccc(N2CCN(Cc3nnn(Cc4ccco4)n3)CC2)c1 [Compound A7] | 7.2 | 15.8 | 29.9 | – | –
COc1ccc(Cl)cc1NC(=O)CCN1CCN(c2ccccc2C)CC1 [Compound B2] | 0 | 0 | 18.5 | – | –
COc1ccc(CC(=O)Nc2cc3oc4ccccc4c3cc2OC)cc1 [Compound B3] | 0 | 0 | 16.6 | – | –
COc1cc(CN2CCC(C(=O)N3CCC(C)CC3)CC2)ccc1OCc1ccccc1 [Compound B5] | 0 | 26.1 | 39.5 | – | –
COc1ccccc1N1CCN(c2nc(-c3ccc(C)cc3)cc(=O)[nH]2)CC1 [Compound B6] | 7.6 | 2.6 | 11 | – | –
O=C(Nc1ccc(CN2CCOCC2)cc1)c1ccc2c(c1)[nH]c(=O)n2CCc1ccccc1 [Compound B7] | 13.3 | – | 14.9 | 65.4 | 40.1
CN(C(=O)COc1ccc(-c2nn(C)c(=O)c3ccccc23)cc1)C1CCCCC1 [Compound C1] | 0 | – | 9.8 | 42.3 | 71.9
CCn1c(CNC(=O)COc2ccc(Cl)cc2)cc2ccccc21 [Compound C3] | 0 | 22 | 20.1 | – | –
COc1ccc(-c2nnc(-c3cc4c(ccc5ccccc54)oc3=O)o2)cc1 [Compound C6] | – | 33.1 | 34.7 | – | –
COCCNc1c(-c2cc3cc(C)ccc3[nH]c2=O)nc2ccc(Cl)cn12 [Compound C7] | 0 | 15.7 | 29.4 | – | –
Cc1cccc(N2CCN(CC(=O)Nc3ccc(C)c(F)c3)CC2)c1 [Compound D1] | 0 | 0 | 20 | – | –
CC(=O)c1ccc(NC(=O)CN2CCN(c3cccc(C)c3C)CC2)cc1 [Compound D2] | 0 | 18.1 | 7 | – | –
COc1ccc(NC(=O)Cn2nc(C(F)(F)F)c3c2CCCC3)c(OC)c1 [Compound D5] | 0 | 4.2 | 7.8 | – | –
COc1ccc(-c2cc(C(F)(F)F)nc(SCCC(=O)N3CCN(C)CC3)n2)cc1 [Compound D6] | 4.8 | 0 | 9.3 | – | –
CCOc1ccc2[nH]c(=O)c(CN(Cc3ccccc3)C(=O)N3CCCC3)cc2c1 [Compound D7] | 0 | 27.7 | 22.4 | – | –
CCc1ccccc1NC(=O)CSc1nnc(-c2cccnc2)n1CC [Compound E2] | 4.1 | 2.7 | 12 | – | –
O=C(CSc1nnc(-c2cccc(F)c2)o1)N1CCC(Cc2ccccc2)CC1 [Compound E3] | 10.3 | 10.2 | 23 | – | –
COc1cccc(OCC(=O)Nc2cc3oc4ccccc4c3cc2OC)c1 [Compound E4] | 4.8 | 1.5 | 11.7 | – | –
C=C(C)CN1N=C(C)Cn2c1nc1c2c(=O)n(C/C=C/c2ccccc2)c(=O)n1C [Compound E5] | 0 | 4.1 | 12.8 | – | –
Cc1ccccc1OCC(=O)Oc1ccc2c(C)cc(=O)oc2c1 [Compound E6] | 2.5 | 0 | 13.2 | – | –
Cc1onc(-c2ccccc2Cl)c1C(=O)N1CCN(Cc2ccc3c(c2)OCO3)CC1 [Compound E7] | 0 | 0.5 | 37.5 | – | –
